How the values were obtained:
Format in all cases: in vivo
[1] = system: Italian ryegrass (Lolium multiflorum); assay: Test A postemergence application; details: approx. 10 days
Method in brief: (§1)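 Seeds sown in loam–sand blend received a directed soil spray preemergence; plants at 2–10 cm, one- to two-leaf stage, were sprayed postemergence. Compounds in non-phytotoxic solvent with surfactant. After about 10 days in greenhouse, injury rated visually versus untreated controls, 0 (no effect) to 100 (complete control).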

[2] = system: barnyardgrass (Echinochloa crus-galli); assay: Test A postemergence application; details: approx. 10 days
Method in brief: as §1

[3] = system: blackgrass (Alopecurus myosuroides); assay: Test A postemergence application; details: approx. 10 days
Method in brief: as §1

[4] = system: corn (Zea mays); assay: Test A postemergence application; details: approx. 10 days
Method in brief: as §1

[5] = system: galium (catchweed bedstraw, Galium aparine); assay: Test A postemergence application; details: approx. 10 days
Method in brief: as §1

[6] = system: giant foxtail (Setaria faberii); assay: Test A postemergence application; details: approx. 10 days
Method in brief: as §1

[7] = system: kochia (Kochia scoparia); assay: Test A postemergence application; details: approx. 10 days
Method in brief: as §1

[8] = system: pigweed (Amaranthus retroflexus); assay: Test A postemergence application; details: approx. 10 days
Method in brief: as §1

[9] = system: ragweed (common ragweed, Ambrosia elatior); assay: Test A postemergence application; details: approx. 10 days
Method in brief: as §1

[10] = system: wheat (Triticum aestivum); assay: Test A postemergence application; details: approx. 10 days
Method in brief: as §1

[11] = system: barnyardgrass (Echinochloa crus-galli); assay: Test C postemergence; details: scale 0 to 100, 0 is no effect, 100 is complete control
Method in brief: (§2)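 Surfactant-containing, non-phytotoxic solvent formulation applied either to soil right after sowing (loam/sand) or over the top of emerged plants 2–18 cm tall. Effects were scored visually after 13–15 days, where 0 means no effect and 100 complete control.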

[12] = system: blackgrass (Alopecurus myosuroides); assay: Test C postemergence; details: scale 0 to 100, 0 is no effect, 100 is complete control
Method in brief: as §2

[13] = system: chickweed (common chickweed, Stellaria media); assay: Test C postemergence; details: scale 0 to 100, 0 is no effect, 100 is complete control
Method in brief: as §2

[14] = system: corn (Zea mays); assay: Test C postemergence; details: scale 0 to 100, 0 is no effect, 100 is complete control
Method in brief: as §2

[15] = system: morningglory (Ipomoea coccinea); assay: Test C postemergence; details: scale 0 to 100, 0 is no effect, 100 is complete control
Method in brief: as §2

[16] = system: oilseed rape (Brassica napus); assay: Test C postemergence; details: scale 0 to 100, 0 is no effect, 100 is complete control
Method in brief: as §2

[17] = system: pigweed (Amaranthus retroflexus); assay: Test C postemergence; details: scale 0 to 100, 0 is no effect, 100 is complete control
Method in brief: as §2

[18] = system: yellow nutsedge (Cyperus esculentus); assay: Test C postemergence; details: scale 0 to 100, 0 is no effect, 100 is complete control
Method in brief: as §2

Structure (SMILES): O=c1cccc(Oc2ncc(Cl)cn2)n1-c1ccc(C(F)(F)F)cn1 [Compound 7]
- Plant response rating (0 to 100 scale, 0 no effect, 100 complete control), Ryegrass, Italian ([1]; 31 g ai/ha): 0
- Plant response rating (0 to 100 scale, 0 no effect, 100 complete control), Ryegrass, Italian ([1]; 125 g ai/ha): 20
- Plant response rating (0 to 100 scale, 0 no effect, 100 complete control), Barnyardgrass ([2]; 31 g ai/ha): 20
- Plant response rating (0 to 100 scale, 0 no effect, 100 complete control), Barnyardgrass ([2]; 125 g ai/ha): 50
- Plant response rating (0 to 100 scale, 0 no effect, 100 complete control), Blackgrass ([3]; 31 g ai/ha): 10
- Plant response rating (0 to 100 scale, 0 no effect, 100 complete control), Blackgrass ([3]; 125 g ai/ha): 30
- Plant response rating (0 to 100 scale, 0 no effect, 100 complete control), Corn ([4]; 31 g ai/ha): 10
- Plant response rating (0 to 100 scale, 0 no effect, 100 complete control), Corn ([4]; 125 g ai/ha): 20
- Plant response rating (0 to 100 scale, 0 no effect, 100 complete control), Galium ([5]; 31 g ai/ha): 50
- Plant response rating (0 to 100 scale, 0 no effect, 100 complete control), Galium ([5]; 125 g ai/ha): 90
- Plant response rating (0 to 100 scale, 0 no effect, 100 complete control), Foxtail, Giant ([6]; 31 g ai/ha): 20
- Plant response rating (0 to 100 scale, 0 no effect, 100 complete control), Foxtail, Giant ([6]; 125 g ai/ha): 50
- Plant response rating (0 to 100 scale, 0 no effect, 100 complete control), Kochia ([7]; 31 g ai/ha): 80
- Plant response rating (0 to 100 scale, 0 no effect, 100 complete control), Kochia ([7]; 125 g ai/ha): 90
- Plant response rating (0 to 100 scale, 0 no effect, 100 complete control), Pigweed ([8]; 31 g ai/ha): 70
- Plant response rating (0 to 100 scale, 0 no effect, 100 complete control), Pigweed ([8]; 125 g ai/ha): 90
- Plant response rating (0 to 100 scale, 0 no effect, 100 complete control), Ragweed ([9]; 31 g ai/ha): 30
- Plant response rating (0 to 100 scale, 0 no effect, 100 complete control), Ragweed ([9]; 125 g ai/ha): 60
- Plant response rating (0 to 100 scale, 0 no effect, 100 complete control), Wheat ([10]; 31 g ai/ha): 0
- Plant response rating (0 to 100 scale, 0 no effect, 100 complete control), Wheat ([10]; 125 g ai/ha): 20
- Plant response rating, Barnyardgrass ([11]; 16 g ai/ha): 5
- Plant response rating, Barnyardgrass ([11]; 31 g ai/ha): 5
- Plant response rating, Barnyardgrass ([11]; 62 g ai/ha): 5
- Plant response rating, Barnyardgrass ([11]; 125 g ai/ha): 10
- Plant response rating, Blackgrass ([12]; 16 g ai/ha): 5
- Plant response rating, Blackgrass ([12]; 31 g ai/ha): 5
- Plant response rating, Blackgrass ([12]; 62 g ai/ha): 10
- Plant response rating, Blackgrass ([12]; 125 g ai/ha): 20
- Plant response rating, Chickweed ([13]; 16 g ai/ha): 0
- Plant response rating, Chickweed ([13]; 31 g ai/ha): 20
- Plant response rating, Chickweed ([13]; 62 g ai/ha): 35
- Plant response rating, Chickweed ([13]; 125 g ai/ha): 55
- Plant response rating, Corn ([14]; 16 g ai/ha): 10
- Plant response rating, Corn ([14]; 31 g ai/ha): 10
- Plant response rating, Corn ([14]; 62 g ai/ha): 20
- Plant response rating, Corn ([14]; 125 g ai/ha): 15
- Plant response rating, Morningglory ([15]; 16 g ai/ha): 20
- Plant response rating, Morningglory ([15]; 31 g ai/ha): 35
- Plant response rating, Morningglory ([15]; 62 g ai/ha): 40
- Plant response rating, Morningglory ([15]; 125 g ai/ha): 45
- Plant response rating, Oilseed Rape ([16]; 16 g ai/ha): 20
- Plant response rating, Oilseed Rape ([16]; 31 g ai/ha): 35
- Plant response rating, Oilseed Rape ([16]; 62 g ai/ha): 40
- Plant response rating, Oilseed Rape ([16]; 125 g ai/ha): 35
- Plant response rating, Pigweed ([17]; 16 g ai/ha): 70
- Plant response rating, Pigweed ([17]; 31 g ai/ha): 65
- Plant response rating, Pigweed ([17]; 62 g ai/ha): 85
- Plant response rating, Pigweed ([17]; 125 g ai/ha): 80
- Plant response rating, Nutsedge, Yellow ([18]; 16 g ai/ha): 0
- Plant response rating, Nutsedge, Yellow ([18]; 31 g ai/ha): 5
- Plant response rating, Nutsedge, Yellow ([18]; 62 g ai/ha): 5
- Plant response rating, Nutsedge, Yellow ([18]; 125 g ai/ha): 10

Structure (SMILES): O=c1cccc(Oc2ncc(Cl)cn2)n1-c1ccc(C(F)(F)F)cc1 [Compound 10]
- Plant response rating (0 to 100 scale, 0 no effect, 100 complete control), Ryegrass, Italian ([1]; 31 g ai/ha): 0
- Plant response rating (0 to 100 scale, 0 no effect, 100 complete control), Ryegrass, Italian ([1]; 125 g ai/ha): 60
- Plant response rating (0 to 100 scale, 0 no effect, 100 complete control), Barnyardgrass ([2]; 31 g ai/ha): 40
- Plant response rating (0 to 100 scale, 0 no effect, 100 complete control), Barnyardgrass ([2]; 125 g ai/ha): 90
- Plant response rating (0 to 100 scale, 0 no effect, 100 complete control), Blackgrass ([3]; 31 g ai/ha): 30
- Plant response rating (0 to 100 scale, 0 no effect, 100 complete control), Blackgrass ([3]; 125 g ai/ha): 50
- Plant response rating (0 to 100 scale, 0 no effect, 100 complete control), Corn ([4]; 31 g ai/ha): 20
- Plant response rating (0 to 100 scale, 0 no effect, 100 complete control), Corn ([4]; 125 g ai/ha): 30
- Plant response rating (0 to 100 scale, 0 no effect, 100 complete control), Galium ([5]; 31 g ai/ha): 30
- Plant response rating (0 to 100 scale, 0 no effect, 100 complete control), Galium ([5]; 125 g ai/ha): 80
- Plant response rating (0 to 100 scale, 0 no effect, 100 complete control), Foxtail, Giant ([6]; 31 g ai/ha): 50
- Plant response rating (0 to 100 scale, 0 no effect, 100 complete control), Foxtail, Giant ([6]; 125 g ai/ha): 90
- Plant response rating (0 to 100 scale, 0 no effect, 100 complete control), Kochia ([7]; 31 g ai/ha): 80
- Plant response rating (0 to 100 scale, 0 no effect, 100 complete control), Kochia ([7]; 125 g ai/ha): 90
- Plant response rating (0 to 100 scale, 0 no effect, 100 complete control), Pigweed ([8]; 31 g ai/ha): 70
- Plant response rating (0 to 100 scale, 0 no effect, 100 complete control), Pigweed ([8]; 125 g ai/ha): 90
- Plant response rating (0 to 100 scale, 0 no effect, 100 complete control), Ragweed ([9]; 31 g ai/ha): 10
- Plant response rating (0 to 100 scale, 0 no effect, 100 complete control), Ragweed ([9]; 125 g ai/ha): 20
- Plant response rating (0 to 100 scale, 0 no effect, 100 complete control), Wheat ([10]; 31 g ai/ha): 0
- Plant response rating (0 to 100 scale, 0 no effect, 100 complete control), Wheat ([10]; 125 g ai/ha): 10
- Plant response rating, Barnyardgrass ([11]; 16 g ai/ha): 5
- Plant response rating, Barnyardgrass ([11]; 31 g ai/ha): 10
- Plant response rating, Barnyardgrass ([11]; 62 g ai/ha): 25
- Plant response rating, Barnyardgrass ([11]; 125 g ai/ha): 65
- Plant response rating, Blackgrass ([12]; 16 g ai/ha): 10
- Plant response rating, Blackgrass ([12]; 31 g ai/ha): 10
- Plant response rating, Blackgrass ([12]; 62 g ai/ha): 30
- Plant response rating, Blackgrass ([12]; 125 g ai/ha): 25
- Plant response rating, Chickweed ([13]; 16 g ai/ha): 70
- Plant response rating, Chickweed ([13]; 31 g ai/ha): 30
- Plant response rating, Chickweed ([13]; 62 g ai/ha): 70
- Plant response rating, Chickweed ([13]; 125 g ai/ha): 80
- Plant response rating, Corn ([14]; 16 g ai/ha): 20
- Plant response rating, Corn ([14]; 31 g ai/ha): 15
- Plant response rating, Corn ([14]; 62 g ai/ha): 25
- Plant response rating, Corn ([14]; 125 g ai/ha): 25
- Plant response rating, Morningglory ([15]; 16 g ai/ha): 50
- Plant response rating, Morningglory ([15]; 31 g ai/ha): 55
- Plant response rating, Morningglory ([15]; 62 g ai/ha): 70
- Plant response rating, Morningglory ([15]; 125 g ai/ha): 75
- Plant response rating, Oilseed Rape ([16]; 16 g ai/ha): 5
- Plant response rating, Oilseed Rape ([16]; 31 g ai/ha): 25
- Plant response rating, Oilseed Rape ([16]; 62 g ai/ha): 80
- Plant response rating, Oilseed Rape ([16]; 125 g ai/ha): 80
- Plant response rating, Pigweed ([17]; 16 g ai/ha): 70
- Plant response rating, Pigweed ([17]; 31 g ai/ha): 90
- Plant response rating, Pigweed ([17]; 62 g ai/ha): 80
- Plant response rating, Pigweed ([17]; 125 g ai/ha): 90
- Plant response rating, Nutsedge, Yellow ([18]; 16 g ai/ha): 5
- Plant response rating, Nutsedge, Yellow ([18]; 31 g ai/ha): 10
- Plant response rating, Nutsedge, Yellow ([18]; 62 g ai/ha): 15
- Plant response rating, Nutsedge, Yellow ([18]; 125 g ai/ha): 20
